Laboratory results published in patent US20240316022A1 (TYRA BIOSCIENCES, INC., priority 2021, published 2024).
Structures can show the parent of a compound that is named as a salt. Where two headings read alike, the source gives them in different places.

Legend:
Experiment in all cases: Kinase binding assay (kinase-tagged T7 phage, qPCR), Kd
FGFR3 = molecular target: T1, FGFR3 (Homo sapiens, UniProt P22607)
T1 construct: made in house; host or cells: E. coli derived from BL21, infected with T7 phage
T1 sequence (P22607 23-806): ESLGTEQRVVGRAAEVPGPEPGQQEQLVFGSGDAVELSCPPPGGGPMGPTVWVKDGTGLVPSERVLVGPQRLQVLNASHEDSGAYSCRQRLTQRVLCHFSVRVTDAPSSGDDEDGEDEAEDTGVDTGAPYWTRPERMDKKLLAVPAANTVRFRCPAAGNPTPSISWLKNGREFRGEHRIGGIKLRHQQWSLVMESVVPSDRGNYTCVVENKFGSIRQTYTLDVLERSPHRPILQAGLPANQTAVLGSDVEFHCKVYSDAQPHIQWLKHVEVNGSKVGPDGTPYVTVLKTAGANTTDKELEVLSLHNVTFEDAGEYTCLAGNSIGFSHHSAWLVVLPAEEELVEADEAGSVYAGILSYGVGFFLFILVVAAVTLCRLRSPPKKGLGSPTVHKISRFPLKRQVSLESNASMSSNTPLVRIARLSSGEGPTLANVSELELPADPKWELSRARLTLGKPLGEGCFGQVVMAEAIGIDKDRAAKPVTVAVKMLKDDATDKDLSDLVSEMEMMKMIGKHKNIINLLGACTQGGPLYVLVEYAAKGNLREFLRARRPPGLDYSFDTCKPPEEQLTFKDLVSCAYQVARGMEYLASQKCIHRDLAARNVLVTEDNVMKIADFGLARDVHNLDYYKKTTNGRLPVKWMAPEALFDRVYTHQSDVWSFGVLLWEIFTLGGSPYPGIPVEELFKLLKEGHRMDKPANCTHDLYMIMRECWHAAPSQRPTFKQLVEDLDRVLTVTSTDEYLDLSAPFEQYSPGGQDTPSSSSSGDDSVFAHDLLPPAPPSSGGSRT

FGFR4 = molecular target: T2, FGFR4 (Homo sapiens, UniProt P22455)
T2 construct: made in house; host or cells: E. coli derived from BL21, infected with T7 phage
T2 sequence (P22455 22-802): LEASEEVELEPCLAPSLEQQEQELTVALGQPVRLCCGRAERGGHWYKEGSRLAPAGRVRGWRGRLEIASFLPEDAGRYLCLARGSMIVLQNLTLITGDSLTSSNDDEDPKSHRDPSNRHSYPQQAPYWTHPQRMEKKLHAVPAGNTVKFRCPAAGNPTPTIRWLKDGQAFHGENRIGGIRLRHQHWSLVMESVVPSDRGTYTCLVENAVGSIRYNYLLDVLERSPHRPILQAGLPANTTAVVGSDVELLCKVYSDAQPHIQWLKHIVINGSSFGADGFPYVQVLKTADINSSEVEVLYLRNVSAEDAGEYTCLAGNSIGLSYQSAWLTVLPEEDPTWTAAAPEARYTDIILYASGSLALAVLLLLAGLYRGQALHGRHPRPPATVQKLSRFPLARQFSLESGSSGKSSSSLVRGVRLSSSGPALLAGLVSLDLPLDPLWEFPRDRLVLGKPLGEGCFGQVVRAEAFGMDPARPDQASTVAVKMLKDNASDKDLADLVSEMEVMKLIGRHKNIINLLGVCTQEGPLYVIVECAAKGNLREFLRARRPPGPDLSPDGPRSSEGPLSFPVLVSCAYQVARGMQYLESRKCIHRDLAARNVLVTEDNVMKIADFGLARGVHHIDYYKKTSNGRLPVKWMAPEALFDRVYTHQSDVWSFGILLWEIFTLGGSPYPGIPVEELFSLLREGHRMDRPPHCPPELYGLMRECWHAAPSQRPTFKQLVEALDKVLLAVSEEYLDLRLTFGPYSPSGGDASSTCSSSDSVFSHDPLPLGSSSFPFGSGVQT

FGFR2 = molecular target: T3, FGFR2 (Homo sapiens, UniProt P21802)
T3 construct: made in house; host or cells: E. coli derived from BL21, infected with T7 phage
T3 sequence (P21802 22-821): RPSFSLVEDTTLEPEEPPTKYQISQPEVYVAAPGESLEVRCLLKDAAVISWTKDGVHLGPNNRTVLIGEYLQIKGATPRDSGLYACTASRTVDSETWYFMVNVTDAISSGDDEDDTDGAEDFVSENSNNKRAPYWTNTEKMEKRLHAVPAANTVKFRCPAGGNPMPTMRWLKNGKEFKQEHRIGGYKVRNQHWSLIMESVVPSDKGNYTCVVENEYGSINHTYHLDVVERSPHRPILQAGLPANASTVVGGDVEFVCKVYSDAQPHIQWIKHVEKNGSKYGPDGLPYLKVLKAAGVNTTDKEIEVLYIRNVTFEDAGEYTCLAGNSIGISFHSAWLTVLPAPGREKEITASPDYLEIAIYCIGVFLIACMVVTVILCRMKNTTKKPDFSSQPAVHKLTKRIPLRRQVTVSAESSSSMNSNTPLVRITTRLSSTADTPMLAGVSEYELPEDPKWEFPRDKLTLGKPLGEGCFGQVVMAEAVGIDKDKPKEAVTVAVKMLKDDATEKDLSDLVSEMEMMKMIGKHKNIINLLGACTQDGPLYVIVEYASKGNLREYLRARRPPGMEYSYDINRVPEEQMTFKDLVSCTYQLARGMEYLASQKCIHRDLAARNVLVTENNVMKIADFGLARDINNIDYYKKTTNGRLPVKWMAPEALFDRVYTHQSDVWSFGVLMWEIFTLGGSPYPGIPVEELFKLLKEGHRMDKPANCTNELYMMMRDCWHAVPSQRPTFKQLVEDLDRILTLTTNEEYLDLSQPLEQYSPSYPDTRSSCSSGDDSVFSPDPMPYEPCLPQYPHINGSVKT

FGFR1 = molecular target: T4, FGFR1 (Homo sapiens, UniProt P11362)
T4 construct: made in house; host or cells: E. coli derived from BL21, infected with T7 phage
T4 sequence (P11362 22-822): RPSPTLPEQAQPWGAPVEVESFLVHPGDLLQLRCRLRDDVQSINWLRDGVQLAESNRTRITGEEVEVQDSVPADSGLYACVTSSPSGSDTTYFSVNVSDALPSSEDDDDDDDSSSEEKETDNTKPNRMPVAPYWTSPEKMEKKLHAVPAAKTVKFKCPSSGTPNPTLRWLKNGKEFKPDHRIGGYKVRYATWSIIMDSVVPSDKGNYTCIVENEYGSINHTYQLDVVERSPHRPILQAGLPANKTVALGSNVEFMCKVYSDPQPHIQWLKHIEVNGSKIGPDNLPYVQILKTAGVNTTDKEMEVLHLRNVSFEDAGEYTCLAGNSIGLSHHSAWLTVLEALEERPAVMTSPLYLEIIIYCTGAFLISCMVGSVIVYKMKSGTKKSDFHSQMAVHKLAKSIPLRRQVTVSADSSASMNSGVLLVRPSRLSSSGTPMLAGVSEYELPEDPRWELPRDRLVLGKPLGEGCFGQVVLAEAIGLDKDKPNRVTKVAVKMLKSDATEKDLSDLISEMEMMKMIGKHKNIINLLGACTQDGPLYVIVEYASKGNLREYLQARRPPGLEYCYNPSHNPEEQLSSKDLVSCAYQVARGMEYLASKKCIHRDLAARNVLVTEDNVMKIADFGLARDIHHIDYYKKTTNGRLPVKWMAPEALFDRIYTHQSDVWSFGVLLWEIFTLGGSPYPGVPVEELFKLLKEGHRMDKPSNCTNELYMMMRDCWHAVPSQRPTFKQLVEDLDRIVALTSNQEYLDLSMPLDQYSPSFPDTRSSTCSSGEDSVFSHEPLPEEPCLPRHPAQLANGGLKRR

Structure (SMILES)	Kd (FGFR3; read-out: FGFR3 (Kd nM)) [nM]	Kd (FGFR4; read-out: FGFR4 (Kd nM)) [nM]	Kd (FGFR2; read-out: FGFR2 (Kd nM)) [nM]	Kd (FGFR1; read-out: FGFR1 (Kd nM)) [nM]	Kd (FGFR3) [nM]	Kd (FGFR4) [nM]	Kd (FGFR2) [nM]	Kd (FGFR1) [nM]	Kd (FGFR1; given as a number, not a class symbol, read-out: FGFR1 (Kd nM)) [nM]
COc1cc(-c2n[nH]c3ccc(O[C@H](C)c4c(Cl)cncc4Cl)cc23)cc(C#N)c1OC [Example 81, 5-[5-[(1R)-1-(3,5-dichloro-4-pyridyl)ethoxy]-1H-indazol-3-yl]-2,3-dimethoxy-benzonitrile]	> 1000	0.1 to 100	> 1000	> 1000	–	–	–	–	–
Cc1cnnc(C)c1[C@@H](C)Oc1ccc2[nH]nc(-c3cc(C#N)cc(C#N)c3)c2c1 [Example 83, 5-[5-[(1R)-1-(3,5-dimethylpyridazin-4-yl)ethoxy]-1H-indazol-3-yl]benzene-1,3-dicarbonitrile]	250 to 1000	0.1 to 100	> 1000	250 to 1000	–	–	–	–	–
Cc1cnnc(C)c1[C@@H](C)Oc1ccc2[nH]nc(-c3cc(C#N)cc(C4CC4)c3)c2c1 [Example 84, 3-cyclopropyl-5-[5-[(1R)-1-(3,5-dimethyl-pyridazin-4-yl)ethoxy]-1H-indazol-3-yl]benzonitrile]	0.1 to 100	0.1 to 100	250 to 1000	250 to 1000	–	–	–	–	–
COc1c(C#N)cc(-c2n[nH]c3ccc(O[C@H](C)c4c(C)cnnc4C)cc23)cc1C#N [Example 85, 5-[5-[(1R)-1-(3,5-dimethylpyridazin-4-yl)ethoxy]-1H-indazol-3-yl]-2-methoxy-benzene-1,3-dicarbonitrile]	250 to 1000	0.1 to 100	> 1000	> 1000	–	–	–	–	–
Cc1cnnc(C)c1[C@@H](C)Oc1ccc2[nH]nc(-c3cc(C#N)cc(C4CCCC4)c3)c2c1 [Example 86, 3-cyclopentyl-5-[5-[(1R)-1-(3,5-dimethylpyridazin-4-yl)ethoxy]-1H-indazol-3-yl]benzonitrile]	> 1000	250 to 1000	> 1000	> 1000	–	–	–	–	–
Cc1cnnc(C)c1[C@@H](C)Oc1ccc2[nH]nc(-c3cc(C#N)cc(N4CC5(CN(C)C5)C4)c3)c2c1 [Example 87, 3-[5-[(1R)-1-(3,5-dimethylpyridazin-4-yl)ethoxy]-1H-indazol-3-yl]-5-(6-methyl-2,6-diazaspiro[3.3]heptan-2-yl)benzonitrile]	250 to 1000	250 to 1000	250 to 1000	> 1000	–	–	–	–	–
COc1ncc(-c2n[nH]c3ccc(O[C@H](C)c4c(C)cnnc4C)cc23)cc1C#N [Example 88, 5-[5-[(1R)-1-(3,5-dimethylpyridazin-4-yl)ethoxy]-1H-indazol-3-yl]-2-methoxy-pyridine-3-carbonitrile]	100 to 250	0.1 to 100	250 to 1000	250 to 1000	–	–	–	–	–
Cc1cnnc(C)c1[C@@H](C)Oc1ccc2[nH]nc(-c3cnc(N(C)C)c(C#N)c3)c2c1 [Example 89, (R)-2-(dimethylamino)-5-(5-(1-(3,5-dimethylpyridazin-4-yl)ethoxy)-1H-indazol-3-yl)nicotinonitrile]	0.1 to 100	0.1 to 100	100 to 250	100 to 250	–	–	–	–	–
Cc1cnnc(C)c1[C@@H](C)Oc1ccc2[nH]nc(-c3cc(C#N)cc(C4CCOC4)c3)c2c1 (stereo partly drawn) [Example 90, 3-(5-((R)-1-(3,5-dimethylpyridazin-4-yl)ethoxy)-1H-indazol-3-yl)-5-(tetrahydrofuran-3-yl)benzonitrile]	0.1 to 100	0.1 to 100	0.1 to 100	250 to 1000	–	–	–	–	–
Cc1cnnc(C)c1[C@H](C)Oc1ccc2[nH]nc(-c3cc(C#N)cc(N4CC5(CN(C)C5)C4)c3)c2c1 [Example 91, (S)-3-(5-(1-(3,5-dimethylpyridazin-4-yl)ethoxy)-1H-indazol-3-yl)-5-(6-methyl-2,6-diazaspiro[3.3]heptan-2-yl)benzonitrile]	> 1000	> 1000	> 1000	> 1000	–	–	–	–	–
COc1cc(-c2n[nH]c3ccc(O[C@H](C)c4c(C)cnnc4C)cc23)cc(C#N)c1F [Example 93, (R)-5-(5-(1-(3,5-dimethylpyridazin-4-yl)ethoxy)-1H-indazol-3-yl)-2-fluoro-3-methoxybenzonitrile]	> 1000	100 to 250	> 1000	> 1000	–	–	–	–	–
C[C@@H](Oc1ccc2[nH]nc(-c3ccc4c(c3)COC3(CCNCC3)O4)c2c1)c1c(Cl)cncc1Cl [Example 94, (R)-6-(5-(1-(3,5-Dichloropyridin-4-yl)ethoxy)-1H-indazol-3-yl)-4H-spiro[benzo[d][1,3]dioxine-2,4′-piperidine] TFA salt]	–	–	–	–	0.1 to 100	0.1 to 100	0.1 to 100	0.1 to 100	–
COc1cc(C#N)cc(-c2n[nH]c3cc(OC)c(O[C@@H](C)c4c(C)cnnc4C)cc23)c1 [Example 97, (S)-3-(5-(1-(3,5-dimethylpyridazin-4-yl)ethoxy)-6-methoxy-1H-indazol-3-yl)-5-methoxybenzonitrile]	> 1000	250 to 1000	> 1000	> 1000	–	–	–	–	–
COc1cc(-c2n[nH]c3cc(OC)c(O[C@H](C)c4c(C)cnnc4C)cc23)cc(C#N)n1 [Example 98, (R)-4-(5-(1-(3,5-dimethylpyridazin-4-yl)ethoxy)-6-methoxy-1H-indazol-3-yl)-6-methoxypicolinonitrile]	100 to 250	0.1 to 100	100 to 250	100 to 250	–	–	–	–	–
CCN1CCC2(CC1)CC(=O)c1cc(-c3n[nH]c4ccc(O[C@H](C)c5c(C)cnnc5C)cc34)ccc1O2 [Example 99, (R)-6-(5-(1-(3,5-dimethylpyridazin-4-yl)ethoxy)-1H-indazol-3-yl)-1′-ethylspiro[chroman-2,4′-piperidin]-4-one]	0.1 to 100	0.1 to 100	0.1 to 100	0.1 to 100	–	–	–	–	–
COc1cc(-c2n[nH]c3ccc(O[C@H](C)c4c(C)cnnc4C)cc23)cc(C#N)n1 [Example 100, (R)-4-(5-(1-(3,5-dimethylpyridazin-4-yl)ethoxy)-1H-indazol-3-yl)-6-methoxypicolinonitrile]	100 to 250	0.1 to 100	250 to 1000	250 to 1000	–	–	–	–	–
COc1cc2[nH]nc(-c3cc(C#N)c(OC)c(OC)c3)c2cc1O[C@H](C)c1c(C)cnnc1C [Example 102, (R)-5-(5-(1-(3,5-dimethylpyridazin-4-yl)ethoxy)-6-methoxy-1H-indazol-3-yl)-2,3-dimethoxybenzonitrile]	0.1 to 100	0.1 to 100	100 to 250	100 to 250	–	–	–	–	–
CCN1CCC2(CC1)CC(O)c1cc(-c3n[nH]c4ccc(O[C@H](C)c5c(Cl)cncc5Cl)cc34)ccc1O2 (stereo partly drawn) [Example 103, 6-[5-[(1R)-1-(3,5-Dichloro-4-pyridyl)ethoxy]-1H-indazol-3-yl]-1′-ethyl-spiro[chromane-2,4′-piperidine]-4-ol]	0.1 to 100	0.1 to 100	100 to 250	–	–	–	–	–	45
C[C@@H](Oc1ccc2[nH]nc(-c3ccc4c(c3)CCC3(CCNCC3)O4)c2c1)c1c(Cl)cncc1Cl [Example 104, 6-[5-[(1R)-1-(3,5-dichloro-4-pyridyl)ethoxy]-1H-indazol-3-yl]spiro[chromane-2,4′-piperidine]]	0.1 to 100	0.1 to 100	0.1 to 100	0.1 to 100	–	–	–	–	–
COc1cc(-c2n[nH]c3ccc(O[C@H](C)c4c(Cl)cncc4Cl)cc23)cc(C#N)c1OC1CCNCC1 [Example 105, 5-[5-[(1R)-1-(3,5-dichloro-4-pyridyl)ethoxy]-1H-indazol-3-yl]-3-methoxy-2-(4-piperidyloxy)benzonitrile]	250 to 1000	0.1 to 100	> 1000	> 1000	–	–	–	–	–
CCN1CCC2(CC1)CC(O)c1cc(-c3n[nH]c4ccc(O[C@H](C)c5c(C)cnnc5C)cc34)ccc1O2 (stereo partly drawn) [Example 107, 6-(5-((R)-1-(3,5-dimethylpyridazin-4-yl)ethoxy)-1H-indazol-3-yl)-1′-ethylspiro[chroman-2,4′-piperidin]-4-ol]	0.1 to 100	0.1 to 100	0.1 to 100	0.1 to 100	–	–	–	–	–
COc1c(C)cc(-c2n[nH]c3ccc(O[C@H](C)c4c(Cl)cncc4Cl)cc23)cc1C#N [Example 108]	0.1 to 100	0.1 to 100	250 to 1000	250 to 1000	–	–	–	–	–
C[C@@H](Oc1ccc2[nH]nc(-c3cc(C#N)cc(C4CC4)c3)c2c1)c1c(Cl)cncc1Cl [Example 109, (R)-3-cyclopropyl-5-(5-(1-(3,5-dichloropyridin-4-yl)ethoxy)-1H-indazol-3-yl)benzonitrile]	250 to 1000	0.1 to 100	> 1000	> 1000	–	–	–	–	–
Cc1cc(-c2n[nH]c3ccc(O[C@H](C)c4c(C)cnnc4C)cc23)cc(C#N)c1OC1CCN(C(C)C)CC1 [Example 110, (R)-5-(5-(1-(3,5-dimethylpyridazin-4-yl)ethoxy)-1H-indazol-3-yl)-2-((1-isopropylpiperidin-4-yl)oxy)-3-methylbenzonitrile]	0.1 to 100	0.1 to 100	0.1 to 100	0.1 to 100	–	–	–	–	–
Cc1cc(-c2n[nH]c3ccc(O[C@H](C)c4c(C)cnnc4C)cc23)cc(C#N)c1OC1CCN(C2COC2)CC1 [Example 113, (R)-5-(5-(1-(3,5-dimethylpyridazin-4-yl)ethoxy)-1H-indazol-3-yl)-3-methyl-2-((1-(oxetan-3-yl)piperidin-4-yl)oxy)benzonitrile]	0.1 to 100	0.1 to 100	0.1 to 100	0.1 to 100	–	–	–	–	–
CCN1CCC(Oc2c(C)cc(-c3n[nH]c4ccc(O[C@H](C)c5c(C)cnnc5C)cc34)cc2C#N)CC1 [Example 115, (R)-5-(5-(1-(3,5-dimethylpyridazin-4-yl)ethoxy)-1H-indazol-3-yl)-2-((1-ethylpiperidin-4-yl)oxy)-3-methylbenzonitrile]	0.1 to 100	0.1 to 100	0.1 to 100	0.1 to 100	–	–	–	–	–
